Measured values as given in patent US8796268B2, “Heteroaryls and uses thereof” (Millennium Pharmaceuticals, Inc., priority 2010, dated 2014).

Key:
[1] = molecular target: T1, Human PI3K alpha (Homo sapiens, UniProt P42336); assay: Human PI3K alpha enzyme assay (HTRF); type: biochemical; details: read-out: PI3Kalpha IC50
T1 construct: His (N); host or cells: SF9 insect cells (baculovirus)
Description: (§1) The catalytic subunits of PI3Ks are cloned into either pDEST8(p110 alpha) or pDEST10(p110beta, p110delta, and p110gamma) as N-terminal His tagged fusion proteins using the Gateway system (Invitrogen, catalog#11804-010 for pDEST8 and 11806-015 for pDEST10). The sequences are verified before recombinant protein expression using the Baculovirus Expression System with Gateway® Technology. The accession numbers for the subunits are as follows: • p110 alpha (GB:U79143) • p110beta (GB: S67334) • p110delta (GB: U86453) • p110gamma (GB: X83368) • The regulatory subunits of PI3Ks are cloned into pDEST8 as un-tagged protein using the Gateway system (Catalog#11804-010). The sequences are verified before recombinant protein expression using the Baculovirus Expression System with Gateway® Technology. The accession numbers for the subunits are as following: • p85 alpha (GB: BC030815) • p101(GB: AB028925) • VPS34 (accession number GB:BC033004) is cloned into pDEST20—Thombin as N-terminal GST tagged fusion proteins using the Gateway system (Invitrogen, catalog#11804-013). The sequences are verified before recombinant protein expression using the Baculovirus Expression System with Gateway® Technology.
(§2) For expression of the p110 complexes, the p85 (MOI of 4) is co-infected with p110 alpha, beta, and delta respectively (1MOI) in SF9 cells and harvested at 60 hours post co-infection. P110 gamma was infected at 1 MOI and harvested at 60 hours post infection.
(§3) For purification, PI3Ks are purified by Ni-NTA Agarose (Qiagen #30250) followed by Mono Q 10/100 GL (Ge Healthcare #17-5167-01). VPS34 is purified by Glutathione Sepharose 4 Fast Flow (GE Healthcare #17-5132-03) followed by HiTrap Q (GE Healthcare #17-1153-01).
1) Human PI3K alpha enzyme assay method
(§4) 0.5 uL compounds in DMSO are added to wells of a 384 well microtitre plate (Corning 3575). At room temperature: 10 ul PI3K reaction buffer (50 mM Hepes, 5 mM DTT, 150 mM NaCl, 10 mM beta-glycerophosphate, 10 mM MgCl2, 0.25 mM sodium cholate and 0.001% CHAPS, pH 7.00) containing ATP (25 uM, Promega) is added followed immediately by 10 ul PI3K reaction buffer containing di-C8 P1(4,5)P2 (3.5 uM, CellSignals) and PI3Kalpha (0.4875 nM, Millennium Protein Sciences Group) and the mixture is incubated with shaking at room temperature for 30 minutes. Then 5 ul PI3K stop mix (50 mM Hepes, 5 mM DTT, 150 mM NaCl, 0.01% Tween-20, 15 mM EDTA and 25 nM biotin-PI(3,4,5)P3 (Echelon) is added to quench the reaction followed immediately by addition of 5 ul HTRF detection mix (50 mM Hepes, 5 mM DTT, 150 mM NaCl, 0.01% Tween-20, 40 mM KF, 1.0 nM GST:GRP-1 PH domain (Millennium Protein Sciences Group), 15 nM Streptavidin-XL (CisBio) and 0.375 nM anti-GST Eu++ antibody (CisBio) at pH 7.00). The plates are then incubated for 1 hour at room temperature with shaking and then read on a BMG PheraStar Plus reader.
(§5) For the assay methods described above, test compound percent inhibition, at various concentrations, is calculated relative to control (DMSO and EDTA) treated samples. Compound concentration versus percent inhibition curves are fitted to generate IC50 values. One skilled in the art will appreciate that the values generated either as percentage inhibition at a single concentration or IC50 values are subject to experimental variation.

[2] = molecular target: T2, Human PI3K beta (Homo sapiens, UniProt P42338); assay: Human PI3K beta enzyme assay (HTRF); type: biochemical; details: read-out: PI3 Kbeta IC50
T2 construct: His (N); host or cells: SF9 insect cells (baculovirus)
T2 sequence (P42338 whole entry): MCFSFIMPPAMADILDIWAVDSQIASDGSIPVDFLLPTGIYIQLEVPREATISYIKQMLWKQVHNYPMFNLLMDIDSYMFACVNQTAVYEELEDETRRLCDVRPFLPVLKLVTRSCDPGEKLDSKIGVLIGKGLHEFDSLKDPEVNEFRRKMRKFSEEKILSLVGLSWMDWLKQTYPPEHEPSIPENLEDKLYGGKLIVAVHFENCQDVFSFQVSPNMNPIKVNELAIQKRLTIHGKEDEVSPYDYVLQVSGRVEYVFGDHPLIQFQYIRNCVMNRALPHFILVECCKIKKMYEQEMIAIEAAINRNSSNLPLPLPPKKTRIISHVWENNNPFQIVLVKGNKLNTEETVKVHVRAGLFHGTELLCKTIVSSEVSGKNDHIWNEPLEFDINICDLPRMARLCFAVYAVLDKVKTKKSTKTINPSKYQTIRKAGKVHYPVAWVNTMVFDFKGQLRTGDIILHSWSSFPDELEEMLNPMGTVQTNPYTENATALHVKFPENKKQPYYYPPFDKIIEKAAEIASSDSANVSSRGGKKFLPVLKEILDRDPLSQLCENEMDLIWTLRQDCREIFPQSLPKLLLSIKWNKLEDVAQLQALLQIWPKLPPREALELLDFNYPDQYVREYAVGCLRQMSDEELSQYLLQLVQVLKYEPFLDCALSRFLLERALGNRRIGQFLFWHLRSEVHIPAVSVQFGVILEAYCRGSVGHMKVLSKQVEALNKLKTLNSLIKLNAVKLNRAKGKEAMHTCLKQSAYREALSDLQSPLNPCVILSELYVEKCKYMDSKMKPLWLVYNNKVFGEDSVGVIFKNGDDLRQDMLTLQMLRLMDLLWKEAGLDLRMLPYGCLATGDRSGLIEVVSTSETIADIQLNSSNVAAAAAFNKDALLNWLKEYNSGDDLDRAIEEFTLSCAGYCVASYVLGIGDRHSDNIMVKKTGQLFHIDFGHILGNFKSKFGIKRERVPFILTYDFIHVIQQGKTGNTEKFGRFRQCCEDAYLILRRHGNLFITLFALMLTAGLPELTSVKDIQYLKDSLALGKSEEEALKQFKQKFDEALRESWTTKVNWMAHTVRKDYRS
T2 sequence (P27986 whole entry partner): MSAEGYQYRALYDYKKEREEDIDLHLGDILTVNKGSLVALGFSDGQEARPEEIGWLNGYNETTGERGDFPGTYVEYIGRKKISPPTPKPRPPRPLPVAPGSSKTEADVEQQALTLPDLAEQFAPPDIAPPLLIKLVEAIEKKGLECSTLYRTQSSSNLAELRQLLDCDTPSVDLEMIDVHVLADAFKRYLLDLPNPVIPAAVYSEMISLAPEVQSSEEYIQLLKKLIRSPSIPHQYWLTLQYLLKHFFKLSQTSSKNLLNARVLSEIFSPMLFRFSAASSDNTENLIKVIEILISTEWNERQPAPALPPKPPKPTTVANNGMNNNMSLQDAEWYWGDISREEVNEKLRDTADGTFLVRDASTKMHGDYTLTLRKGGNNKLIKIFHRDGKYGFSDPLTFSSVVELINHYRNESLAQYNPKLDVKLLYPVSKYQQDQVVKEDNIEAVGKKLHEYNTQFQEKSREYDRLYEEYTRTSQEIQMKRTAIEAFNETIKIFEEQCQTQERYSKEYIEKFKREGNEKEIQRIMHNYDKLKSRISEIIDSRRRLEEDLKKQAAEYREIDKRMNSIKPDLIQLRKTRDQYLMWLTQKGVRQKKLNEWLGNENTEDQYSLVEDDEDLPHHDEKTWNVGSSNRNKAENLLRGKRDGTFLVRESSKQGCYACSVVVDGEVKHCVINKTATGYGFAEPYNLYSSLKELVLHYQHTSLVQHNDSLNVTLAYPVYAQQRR
Description: as §1, §2, §3, §4
2) Human PI3K beta, delta and gamma isoforms are tested using the procedure described for PI3K alpha above but with the following changes: PI3K beta (5.25 nM), PI3K delta (0.75 nM) and PI3K gamma (5 nM). All isoforms supplied by Millennium Protein Science Group.
as §5

T1 sequence (P42336 whole entry): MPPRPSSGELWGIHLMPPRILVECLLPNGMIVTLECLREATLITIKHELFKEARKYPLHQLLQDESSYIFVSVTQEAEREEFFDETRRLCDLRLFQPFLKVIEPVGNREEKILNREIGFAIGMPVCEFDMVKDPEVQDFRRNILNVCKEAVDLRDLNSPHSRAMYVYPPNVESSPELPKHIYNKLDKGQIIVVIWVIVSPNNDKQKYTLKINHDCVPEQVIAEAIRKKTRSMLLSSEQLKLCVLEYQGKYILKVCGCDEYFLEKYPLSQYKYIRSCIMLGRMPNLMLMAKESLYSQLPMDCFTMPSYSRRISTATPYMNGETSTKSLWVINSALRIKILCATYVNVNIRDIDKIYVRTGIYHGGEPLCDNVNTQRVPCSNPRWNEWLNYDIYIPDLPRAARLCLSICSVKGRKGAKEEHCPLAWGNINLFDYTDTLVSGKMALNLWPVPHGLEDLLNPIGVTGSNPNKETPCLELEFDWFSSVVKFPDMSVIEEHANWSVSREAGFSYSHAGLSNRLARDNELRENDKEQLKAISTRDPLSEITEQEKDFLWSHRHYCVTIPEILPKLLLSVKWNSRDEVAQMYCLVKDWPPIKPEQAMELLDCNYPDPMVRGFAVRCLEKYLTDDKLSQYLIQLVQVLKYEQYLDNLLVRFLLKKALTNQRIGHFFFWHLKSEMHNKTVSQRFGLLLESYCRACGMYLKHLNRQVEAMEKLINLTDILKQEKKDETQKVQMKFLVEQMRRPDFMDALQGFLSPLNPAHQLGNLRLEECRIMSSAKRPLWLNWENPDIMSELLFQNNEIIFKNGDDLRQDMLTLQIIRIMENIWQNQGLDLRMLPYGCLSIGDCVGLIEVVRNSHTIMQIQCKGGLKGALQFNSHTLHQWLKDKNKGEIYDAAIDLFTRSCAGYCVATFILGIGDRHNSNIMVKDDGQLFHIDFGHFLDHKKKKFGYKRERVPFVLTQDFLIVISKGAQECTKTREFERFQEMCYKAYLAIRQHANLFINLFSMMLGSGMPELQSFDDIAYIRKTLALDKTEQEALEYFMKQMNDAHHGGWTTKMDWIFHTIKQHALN
T1 sequence (P27986 whole entry partner): as the sequence (P27986 whole entry partner) above

SMILES | IC50 [1] [nM] | IC50 [2] [nM]
Clc1ccc(Cc2nc(-c3ccncc3)sc2-c2ncc[nH]2)cc1 [Compound 15, 4-(4-chlorobenzyl)-5-(1H-imidazol-2-yl)-2-(pyridin-4-yl)thiazole] | > 1000 | 100 to 1000
OC(c1ccc(Cl)cc1)c1cc(-c2ccncc2F)sc1-c1nnc[nH]1 (centres unmarked) [Compound 16] | > 1000 | < 100
COc1cc(-c2cc(C(O)c3ccc(Cl)cc3)c(-c3nnc[nH]3)s2)ccn1 (centres unmarked) [Compound 17] | > 1000 | 100 to 1000
Cc1cc(-c2nc(Cc3ccc(Cl)cc3)c(-c3nc[nH]n3)s2)ccn1 [Compound 18, 4-(4-Chlorobenzyl)-2-(2-methylpyridin-4-yl)-5-(4H-1,2,4-triazol-3-yl)thiazole] | > 1000 | > 1000
COc1ccc(CNCc2ccn3nc(C)c(-c4nc(Cc5ccc(Cl)cc5)c(-c5nnc[nH]5)s4)c3c2)c(OC)c1 [Compound 20] | 100 to 1000 | < 100
OC(c1ccc(Cl)cc1)c1cc(-c2ccnc(F)c2)sc1-c1nnc[nH]1 (centres unmarked) [Compound 21, (4-chlorophenyl)[5-(2-fluoropyridin-4-yl)-2-(4H-1,2,4-triazol-3-yl)-3-thienyl]methanol] | > 1000 | < 100
Clc1ccc(Cc2nc(-c3ccncc3)sc2-c2ccc[nH]2)cc1 [Compound 22, 4-(4-chlorobenzyl)-2-(pyridin-4-yl)-5-(1H-pyrrol-2-yl)thiazole] | > 1000 | > 1000
Nc1nccc(-c2cc(C(O)c3ccc(Cl)cc3)c(-c3nnc[nH]3)s2)n1 (centres unmarked) [Compound 23] | > 1000 | 100 to 1000
CC(=O)Nc1cc(-c2nc(Cc3ccc(C)cc3)c(-c3ncc[nH]3)s2)ccn1 [Compound 24] | 100 to 1000 | > 1000
OC(c1ccc(Cl)cc1)c1cc(-c2ccncc2Cl)sc1-c1nc[nH]n1 (centres unmarked) [Compound 25] | > 1000 | 100 to 1000
O[C@@H](c1ccc(Cl)cc1)c1cc(-c2ccnc(F)c2)sc1-c1nnc[nH]1 [Compound 26] | > 1000 | 100 to 1000
Nc1cc(-c2nc(Cc3ccc(Cl)cc3)c(-c3ncn[nH]3)s2)ccn1 [Compound 27] | > 1000 | 100 to 1000
OC(c1ccc(Cl)cc1)c1cc(-c2ccnc(-n3ccnc3)c2)sc1-c1nnc[nH]1 (centres unmarked) [Compound 28] | 100 to 1000 | 100 to 1000
CC(=O)Nc1cc(-c2nc(NC(=O)c3ccccc3)c(-c3ncc[nH]3)s2)ccn1 [Compound 29, N-(2-(2-acetamidopyridin-4-yl)-5-(1H-imidazol-2-yl)thiazol-4-yl)benzamide] | < 100 | > 1000
O[C@H](c1ccc(Cl)cc1)c1cc(-c2ccnc(Cl)c2)sc1-c1nnc[nH]1 [Compound 30] | 100 to 1000 | < 100
Cc1nn2ccc(CN(CCN)Cc3ccncc3)cc2c1-c1nc(Cc2ccc(Cl)cc2)c(-c2nnc[nH]2)s1 [Compound 31] | 100 to 1000 | < 100
Cc1nn2ccc(CNCc3ccccc3)cc2c1-c1nc(Cc2ccc(Cl)cc2)c(-c2nnc[nH]2)s1 [Compound 32] | 100 to 1000 | 100 to 1000
CC(C)NC(c1ccc(Cl)cc1)c1cc(-c2ccncc2)sc1-c1nnc[nH]1 (centres unmarked) [Compound 33] | > 1000 | 100 to 1000
Cc1noc(C)c1-c1cc(C(O)c2ccc(Cl)cc2)c(-c2nnc[nH]2)s1 (centres unmarked) [Compound 34] | > 1000 | 100 to 1000
Cc1nn2ccc(CNC(=N)N)cc2c1-c1nc(Cc2ccc(Cl)cc2)c(-c2nnc[nH]2)s1 [Compound 35, N-({3-[4-(4-chlorobenzyl)-5-(4H-1,2,4-triazol-3-yl)-1,3-thiazol-2-yl]-2-methylpyrazolo[1,5-a]pyridin-5-yl}methyl)guanidine] | 100 to 1000 | 100 to 1000

SMILES | IC50 [1] [nM] | IC50 [2] [nM]
N#Cc1c(-c2ccncc2)sc(C(=O)O)c1Cc1ccc(Cl)cc1 [Compound 36] | > 1000 | < 100
Fc1cc(-c2nc(Cc3ccc(Cl)cc3)c(-c3nnc[nH]3)s2)ccn1 [Compound 37] | > 1000 | 100 to 1000
Cc1nn2ccc(CNCCCN)cc2c1-c1nc(Cc2ccc(Cl)cc2)c(-c2nnc[nH]2)s1 [Compound 38] | 100 to 1000 | 100 to 1000
Clc1ccc(Cc2nc(-c3ccnnc3)sc2-c2nnc[nH]2)cc1 [Compound 39] | > 1000 | 100 to 1000
CC(=O)Nc1cc(-c2cc(C(O)c3ccc(Cl)cc3)c(-c3nnc[nH]3)s2)ccn1 (centres unmarked) [Compound 41] | < 100 | < 100
OC(c1ccc(Cl)cc1)c1cc(-c2ccnc3ccccc23)sc1-c1nnc[nH]1 (centres unmarked) [Compound 42] | 100 to 1000 | 100 to 1000
Cc1cc(-c2cc([C@H](O)c3ccc(Cl)cc3)c(-c3nnc[nH]3)s2)ccn1 [Compound 43] | > 1000 | < 100
CN(C)[C@H](c1ccc(Cl)cc1)c1cc(-c2ccncc2)sc1-c1nnc[nH]1 [Compound 44] | > 1000 | < 100
O[C@H](c1ccc(Cl)cc1)c1cc(-c2ccnc(F)c2)sc1-c1nnc[nH]1 [Compound 45] | > 1000 | < 100
Cc1noc(C)c1-c1nc(Cc2ccc(Cl)cc2)c(-c2nnc[nH]2)s1 [Compound 46] | > 1000 | 100 to 1000
Clc1ccc(Cc2nc(-c3ccnc(Cl)c3)sc2-c2nnc[nH]2)cc1 [Compound 47, 4-(4-chlorobenzyl)-2-(2-chloropyridin-4-yl)-5-(4H-1,2,4-triazol-3-yl)thiazole] | > 1000 | 100 to 1000
N#Cc1cc(-c2cc([C@@H](O)c3ccc(Cl)cc3)c(-c3nnc[nH]3)s2)ccn1 [Compound 48] | 100 to 1000 | 100 to 1000
OCCNc1cc(-c2cc(C(O)c3ccc(Cl)cc3)c(-c3nnc[nH]3)s2)ccn1 (centres unmarked) [Compound 49, 2-({4-[4-[(4-chlorophenyl)(hydroxy)methyl]-5-(4H-1,2,4-triazol-3-yl)-2-thienyl]pyridin-2-yl}amino)ethanol] | > 1000 | > 1000
Cc1nn2ccc(CNC(=O)c3cnccn3)cc2c1-c1nc(Cc2ccc(Cl)cc2)c(-c2nnc[nH]2)s1 [Compound 50, N-({3-[4-(4-chlorobenzyl)-5-(4H-1,2,4-triazol-3-yl)-1,3-thiazol-2-yl]-2-methylpyrazolo[1,5-a]pyridin-5-yl}methyl)pyrazine-2-carboxamide] | < 100 | < 100
Clc1ccc(C(c2cc(-c3ccncc3)sc2-c2nnc[nH]2)N2CCC2)cc1 (centres unmarked) [Compound 51] | > 1000 | < 100
OC(c1ccc(Cl)cc1)c1cc(-c2ccncc2)sc1-c1nnc[nH]1 (centres unmarked) [Compound 52] | > 1000 | < 100
Clc1ccc(Cc2nc(-c3ccnc4[nH]ccc34)sc2-c2ncn[nH]2)cc1 [Compound 53] | 100 to 1000 | 100 to 1000
Cc1nn2ccc(CNCCN)cc2c1-c1nc(Cc2ccc(Cl)cc2)c(-c2nnc[nH]2)s1 [Compound 54] | 100 to 1000 | 100 to 1000
O[C@@H](c1ccc(Cl)cc1)c1cc(-c2ccnnc2)sc1-c1nnc[nH]1 [Compound 55] | > 1000 | > 1000
CC(=O)Nc1cc(-c2nc(Cc3ccc(Cl)cc3)c(-c3ncn[nH]3)s2)ccn1 [Compound 56, N-{4-[4-(4-chlorobenzyl)-5-(4H-1,2,4-triazol-3-yl)-1,3-thiazol-2-yl]pyridin-2-yl}acetamide] | 100 to 1000 | 100 to 1000
